Laboratory results: PubChem BioAssay AID652276 (Vanderbilt Specialized Chemistry Center, 2013)
Activity calls are given as the source filed them. How the calls were made is not given here.

These molecules were tested against Activin receptor type-1 (Homo sapiens) (UniProt Q04771) (assay: ALK2 kinase inhibitors, SAR follow-up, biochemical, secondary in vitro (AID 652276)). Details: in vitro ALK2 kinase assay.
Activin receptor type-1 (Homo sapiens), sequence (Q04771 whole entry, looked up): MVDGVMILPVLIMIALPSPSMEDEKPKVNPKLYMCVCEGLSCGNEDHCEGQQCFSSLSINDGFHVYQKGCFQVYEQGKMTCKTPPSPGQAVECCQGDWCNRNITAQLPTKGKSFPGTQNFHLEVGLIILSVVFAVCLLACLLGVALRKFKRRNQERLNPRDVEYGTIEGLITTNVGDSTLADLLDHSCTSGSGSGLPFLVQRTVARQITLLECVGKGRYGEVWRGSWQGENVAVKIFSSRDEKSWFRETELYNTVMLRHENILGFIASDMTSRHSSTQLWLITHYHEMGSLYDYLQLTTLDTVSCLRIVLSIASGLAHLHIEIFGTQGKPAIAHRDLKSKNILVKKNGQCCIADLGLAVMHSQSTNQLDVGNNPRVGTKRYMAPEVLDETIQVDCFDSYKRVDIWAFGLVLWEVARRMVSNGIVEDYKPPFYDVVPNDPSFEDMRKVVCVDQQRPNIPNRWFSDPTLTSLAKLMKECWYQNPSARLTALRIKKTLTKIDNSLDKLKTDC

`c1cc(N2CCNCC2)ccc1-c1cnc2c(-c3cn[nH]c3)cnn2c1` was tested. Which IC50 did it give?
The IC50 was 43 nM.

With `COc1ccc(-c2cnc3c(-c4cn[nH]c4)cnn3c2)cc1` as the molecule, how does the IC50 read?
Its IC50 is 110 nM.

`COc1ccc(-c2cnc3c(-c4ccnc5ccccc45)cnn3c2)cc1` was tested. Which IC50 did it give?
The IC50 was 33 nM.

Which IC50 does the source give for `c1cc(N2CCOCC2)ccc1-c1cnc2c(-c3cn[nH]c3)cnn2c1` here?
Its IC50 is 53 nM.

For `COc1ccc(-c2cnc3c(-c4ccnc5ncccc45)cnn3c2)cc1`, which IC50 is on record?
The IC50 was 121 nM.

Same assay, conditions: in vitro ALK2 kinase assay; at 100 µM (top of the series)

`CN1CCN(c2ccc(-c3cnc4c(-c5ccnc6ccccc56)cnn4c3)cc2)CC1` was tested. Which remaining activity (low = inhibition) did it give?
Its remaining activity (low = inhibition) is -0.03.

With `c1ccc2c(-c3cnn4cc(-c5ccc(N6CCOCC6)cc5)cnc34)ccnc2c1` as the molecule, how does the remaining activity (low = inhibition) read?
The remaining activity (low = inhibition) was 0.93.

For `COc1ccc(-c2cnc3c(-c4cccc5cccnc45)cnn3c2)cc1`, which “remaining activity (low = inhibition)” value is on record?
The value was “inactive”.
